# Measured values: patent US12319655B2, “RAF kinase inhibitors and methods of use thereof” (Deciphera Pharmaceuticals, LLC, priority 2021, dated 2025)
# pIC50: −log10 of the molar value.
# How the values were obtained:
# [1] = target: C-Raf kinase (SEQ. ID NO: 3) (Homo sapiens (Human), UniProt P04049, Y340D/Y341D); test: Biochemical Assay for C-Raf (1); conditions: Table J, assay version (1); read-out: CRAF (1) IC50
# Method in brief: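 Coupled pyruvate kinase/LDH assay tracking NADH oxidation at 340 nm, with 0.43 nM C-Raf, 30.1 nM MEK and 1 mM ATP in pH 7.5 Tris buffer (15 mM MgCl2, 1% DMSO final). Read continuously for 6 h at 30 °C, rate taken from the 4–5 h window. IC50 from four-parameter fit of percent inhibition.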
# [2] = target: B-Raf (V600E) (SEQ. ID NO: 4) kinase (Homo sapiens (Human), UniProt P15056, V600E); test: Biochemical Assay for B-Raf (V600E) (1); conditions: Table J, BRAF V600E, assay version (1); read-out: BRAF VE (1) IC50
# B-Raf (V600E) (SEQ. ID NO: 4) kinase, sequence (P15056 416-766 V600E): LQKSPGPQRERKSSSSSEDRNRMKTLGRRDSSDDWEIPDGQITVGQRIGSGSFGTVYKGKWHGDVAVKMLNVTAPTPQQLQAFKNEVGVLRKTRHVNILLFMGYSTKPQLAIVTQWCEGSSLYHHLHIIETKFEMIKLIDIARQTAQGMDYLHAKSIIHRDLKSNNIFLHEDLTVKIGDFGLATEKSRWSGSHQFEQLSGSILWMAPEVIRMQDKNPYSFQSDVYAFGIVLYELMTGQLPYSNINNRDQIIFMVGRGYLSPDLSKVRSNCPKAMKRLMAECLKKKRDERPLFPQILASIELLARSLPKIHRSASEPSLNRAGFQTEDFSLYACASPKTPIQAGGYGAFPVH
# Method in brief: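 Coupled pyruvate kinase/lactate dehydrogenase assay: 0.03 nM B-Raf V600E, 30.1 nM MEK, 1 mM ATP, pH 7.5 Tris/MgCl2 buffer, 1% DMSO. NADH oxidation followed at 340 nm for 6 h at 30 °C; rate from 3–4 h converted to percent inhibition, IC50 by four-parameter fit.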
# [3] = system: A375 cells; test: A375 Cell Proliferation Assay (1); assay type: cell-based; conditions: Homo sapiens, A-375
# Method in brief: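 Resazurin fluorescence (excitation 540 nm, emission 600 nm, after a further 5-6 h) gave IC50s from triplicate compound dilution series.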
# [4] = system: H2405 cells; test: H2405 Cell Proliferation Assay (1); assay type: cell-based; conditions: Homo sapiens, NCI-H2405
# Method in brief: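 Viability was read by resazurin reduction (ex 540 nm, em 600 nm; 5-6 h with 40 μL of 440 μM stock) after 67-72 h compound exposure at 37 °C.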
# C-Raf kinase (SEQ. ID NO: 3), sequence (P04049 307-648 Y340D/Y341D): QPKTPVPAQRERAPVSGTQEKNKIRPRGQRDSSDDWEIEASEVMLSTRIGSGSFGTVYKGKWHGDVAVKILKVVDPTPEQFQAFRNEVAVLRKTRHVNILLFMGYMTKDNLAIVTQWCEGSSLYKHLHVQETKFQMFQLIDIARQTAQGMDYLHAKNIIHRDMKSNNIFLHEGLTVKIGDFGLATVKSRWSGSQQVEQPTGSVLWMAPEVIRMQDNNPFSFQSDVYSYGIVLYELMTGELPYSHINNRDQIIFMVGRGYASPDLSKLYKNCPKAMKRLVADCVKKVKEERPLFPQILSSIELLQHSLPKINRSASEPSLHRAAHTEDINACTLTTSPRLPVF
SMILES,pIC50 [1],pIC50 [2],pIC50 [3],pIC50 [4]
"CC(=O)Nc1cc(-c2cc(-c3cc(NC(=O)c4ccnc(C(F)(F)F)c4)ccc3C)cn(C)c2=O)ccn1 [Example 21, N-(3-(2′-acetamido-1-methyl-2-oxo-1,2-dihydro-[3,4′-bipyridin]-5-yl)-4-methylphenyl)-2-(trifluoromethyl)isonicotinamide]",≥ 7.00,≥ 7.00,5.00 to 6.00,–
Cc1ccc(NC(=O)c2ccnc(C(C)(C)C#N)c2)cc1-c1nccc(-c2ccnc3c2CC(=O)N3)n1 [Example 22],≥ 7.00,≥ 7.00,5.00 to 6.00,–
Cc1ccc(NC(=O)c2ccnc(C(C)(C)C#N)c2)cc1-c1ccnc(-c2ccnc3c2CC(=O)N3)c1 [Example 23],≥ 7.00,≥ 7.00,≥ 7.00,6.30 to 7.00
CC(=O)Nc1cc(-c2nccc(-c3cc(NC(=O)c4ccnc(C(F)(F)F)c4)ccc3C)n2)ccn1 [Example 24],≥ 7.00,≥ 7.00,≥ 7.00,–
CNC(=O)c1cc(-c2nccc(-c3cc(NC(=O)c4ccnc(C(F)(F)F)c4)ccc3C)n2)ccn1 [Example 25],≥ 7.00,≥ 7.00,6.00 to 6.30,–
CC(=O)Nc1cc(-c2cc(-c3cc(C(=O)Nc4ccnc(C(F)(F)F)c4)ccc3C)ccn2)ccn1 [Example 26],≥ 7.00,≥ 7.00,6.30 to 7.00,–
CNC(=O)c1cc(-c2cc(-c3cc(NC(=O)c4ccnc(C(F)(F)F)c4)ccc3C)cc(C3CC3)n2)ccn1 [Example 27],6.30 to 7.00,≥ 7.00,≥ 7.00,≥ 7.00
CC(=O)Nc1cc(-c2cccc(-c3cc(NC(=O)c4ccnc(C(F)(F)F)c4)ccc3C)c2)ccn1 [Example 28],≥ 7.00,≥ 7.00,≥ 7.00,–
CC(=O)Nc1cc(-c2cncc(-c3cc(NC(=O)c4ccnc(C(F)(F)F)c4)ccc3C)n2)ccn1 [Example 29],≥ 7.00,≥ 7.00,6.30 to 7.00,≥ 7.00
CC(=O)Nc1cc(-c2cccc(-c3cc(NC(=O)c4ccnc(C(F)(F)F)c4)ccc3C)c2)ncn1 [Example 30],≥ 7.00,≥ 7.00,≥ 7.00,≥ 7.00
CNC(=O)c1cc(-c2cc(-c3cc(C(=O)Nc4ccnc(C(F)(F)F)c4)ccc3C)ccn2)ccn1 [Example 31],≥ 7.00,≥ 7.00,5.00 to 6.00,–
Cc1ncc(NC(=O)c2cncc(C(F)F)c2)cc1-c1cccc(-c2cc(NC(=O)C3CC3)ncn2)c1 [Example 280],≥ 7.00,≥ 7.00,6.30 to 7.00,6.30 to 7.00
Cc1ncc(NC(=O)c2cn(C(C)C)nn2)cc1-c1ccnc(-c2ccnc(NC(=O)C3CC3)c2)n1 [Example 281],≥ 7.00,≥ 7.00,5.00 to 6.00,6.30 to 7.00
COC(=O)Nc1cc(-c2cccc(-c3cc(NC(=O)c4ccnc(C(C)(C)C#N)c4)cnc3C)c2)ccn1 [Example 282],≥ 7.00,≥ 7.00,≥ 7.00,6.00 to 6.30
Cc1ncc(NC(=O)c2cnn(C(C)(C)C)c2)cc1-c1ccnc(-c2ccnc(NC(=O)C3CC3)c2)n1 [Example 283],≥ 7.00,≥ 7.00,6.30 to 7.00,6.30 to 7.00
Cc1ccc(NC(=O)c2cnnc(C3CC3)c2)cc1-c1cccc(-c2cc(NC(=O)C3CC3)ncn2)c1 [Example 284],≥ 7.00,≥ 7.00,≥ 7.00,6.00 to 6.30
Cc1ncc(NC(=O)c2cn(C(C)C)nn2)cc1-c1nccc(-c2ccnc(NC(=O)C3CC3)c2)n1 [Example 285],≥ 7.00,≥ 7.00,5.00 to 6.00,5.00 to 6.00
Cc1nc(-c2ccnc(NC(=O)C3CC3)c2)cc(-c2cc(NC(=O)c3ccnc(C4(C#N)CC4)c3)cnc2C)n1 [Example 286],≥ 7.00,≥ 7.00,6.00 to 6.30,6.30 to 7.00
Cc1nc(-c2ccnc(NC(=O)C3CC3)c2)cc(-c2cc(NC(=O)c3ccnc(C4CC4)c3)cnc2C)n1 [Example 287],≥ 7.00,≥ 7.00,5.00 to 6.00,6.00 to 6.30
COC(=O)Nc1cc(-c2cccc(-c3cc(NC(=O)c4ccnc(C5CC5)c4)cnc3C)c2)ccn1 [Example 288],≥ 7.00,≥ 7.00,5.00 to 6.00,5.00 to 6.00
COC(=O)Nc1nccc(-c2cccc(-c3cc(NC(=O)c4ccnc(C(C)(C)C#N)c4)cnc3C)c2)n1 [Example 290],6.30 to 7.00,≥ 7.00,5.00 to 6.00,5.00 to 6.00

SMILES,pIC50 [1],pIC50 [2],pIC50 [3],pIC50 [4]
Cc1ncc(NC(=O)c2ccnc(C3CC3)c2)cc1-c1cccc(-c2cc(NC(=O)C3CC3)ncn2)c1 [Example 291],≥ 7.00,≥ 7.00,6.30 to 7.00,6.30 to 7.00
Cc1ncc(NC(=O)c2cnnc(C3CC3)c2)cc1-c1nccc(-c2ccnc(NC(=O)C3CC3)c2)n1 [Example 294],≥ 7.00,≥ 7.00,5.00 to 6.00,6.30 to 7.00
Cc1ncc(NC(=O)c2ccnc(C3CC3)c2)cc1-c1nccc(-c2ccnc(NC(=O)C3CC3)c2)n1 [Example 295],≥ 7.00,≥ 7.00,6.00 to 6.30,6.30 to 7.00
COC(=O)Nc1cc(-c2cc(-c3cc(NC(=O)c4ccnc(C(C)(C)C#N)c4)cnc3C)ccn2)ccn1 [Example 297],≥ 7.00,≥ 7.00,≥ 7.00,≥ 7.00
Cc1cc(F)c(NC(=O)c2ccnc(C(C)(C)C#N)c2)cc1-c1cc(-c2ccnc(NC(=O)C3CC3)c2)cnn1 [Example 298],≥ 7.00,≥ 7.00,6.30 to 7.00,6.30 to 7.00
COC(=O)Nc1cc(-c2cnnc(-c3cc(NC(=O)c4ccnc(C(C)(C)C#N)c4)c(F)cc3C)c2)ccn1 [Example 299],≥ 7.00,≥ 7.00,6.30 to 7.00,6.30 to 7.00
Cc1cc(F)c(NC(=O)c2ccnc(C(C)(C)F)c2)cc1-c1ccnc(-c2ccnc(NC(=O)C3CC3)c2)c1 [Example 300],≥ 7.00,≥ 7.00,≥ 7.00,≥ 7.00
Cc1ncc(NC(=O)c2ccnc(C(C)(C)C#N)c2)cc1-c1cccc(-c2ccnc(C(N)=O)c2)c1 [Example 301],≥ 7.00,≥ 7.00,6.30 to 7.00,6.30 to 7.00
COC(=O)Nc1cc(-c2cc(-c3cc(NC(=O)c4ccnc(C(C)(C)F)c4)c(F)cc3C)ccn2)ccn1 [Example 302],≥ 7.00,≥ 7.00,≥ 7.00,6.30 to 7.00
COC(=O)Nc1cc(-c2nccc(-c3cc(NC(=O)c4ccnc(C(C)(C)C#N)c4)c(F)cc3C)n2)ccn1 [Example 303],≥ 7.00,≥ 7.00,≥ 7.00,≥ 7.00
COC(=O)Nc1cc(-c2nccc(-c3cc(NC(=O)c4ccnc(C(C)(C)F)c4)c(F)cc3C)n2)ccn1 [Example 304],≥ 7.00,≥ 7.00,6.30 to 7.00,6.30 to 7.00
COC(=O)Nc1cc(-c2cnnc(-c3cc(NC(=O)c4ccnc(C(C)(C)C#N)c4)ccc3C)c2)ccn1 [Example 305],≥ 7.00,≥ 7.00,6.30 to 7.00,6.30 to 7.00
COC(=O)Nc1cc(-c2cnnc(-c3cc(NC(=O)c4ccnc(C(C)(C)C#N)c4)cnc3C)c2)ccn1 [Example 306],6.30 to 7.00,6.30 to 7.00,5.00 to 6.00,5.00 to 6.00
Cc1cc(F)c(NC(=O)c2ccnc(C(F)F)c2)cc1-c1ccnc(-c2ccnc(NC(=O)C3CC3)c2)c1 [Example 307],≥ 7.00,≥ 7.00,6.00 to 6.30,≥ 7.00
COC(=O)Nc1cc(-c2cc(-c3cc(NC(=O)c4ccnc(C(C)(C)C#N)c4)c(F)cc3C)ccn2)ccn1 [Example 308],≥ 7.00,≥ 7.00,≥ 7.00,≥ 7.00
CNC(=O)c1cc(-c2cnnc(-c3cc(NC(=O)c4ccnc(C(C)(C)F)c4)cnc3C)c2)ccn1 [Example 309],6.30 to 7.00,6.30 to 7.00,5.00 to 6.00,5.00 to 6.00
Cc1ncc(NC(=O)c2ccnc(C(C)(C)F)c2)cc1-c1cc(-c2ccnc(NC(=O)C3CC3)c2)cnn1 [Example 310],≥ 7.00,≥ 7.00,6.30 to 7.00,6.30 to 7.00
COC(=O)Nc1cc(-c2cnnc(-c3cc(NC(=O)c4cccc(C(C)(C)C#N)c4)ccc3C)c2)ccn1 [Example 311],≥ 7.00,≥ 7.00,≥ 7.00,6.30 to 7.00
COC(=O)Nc1cc(-c2cc(-c3cc(NC(=O)c4ccnc(C(F)(F)F)c4)cnc3C)ccn2)ccn1 [Example 312],≥ 7.00,6.00 to 6.30,6.30 to 7.00,6.30 to 7.00
CO[C@H]1CC[C@H](C(=O)Nc2ccc(C)c(-c3ccnc(-c4ccnc(NC(=O)C5CC5)c4)n3)c2)CC1 [Example 341],≥ 7.00,≥ 7.00,5.00 to 6.00,–
